Measurements reported in US20220187275A1, “SYSTEMS AND METHODS FOR DIRECTED FORMATION OF SIZE-CONTROLLED MULTI-CELLULAR STRUCTURES AND MEASUREMENT OF FORCES GENERATED BY THE SAME” (Forcyte Biotechnologies, Inc., priority 2019, published 2022).

Tested on: primary human airway smooth muscle cells
Details: 384-well plate, 24 hours serum starvation, histamine final concentration 100 micromolar, imaged at 1 minute intervals
Experimental: To achieve the result depicted in FIG. 9, approximately 2000-2500 primary human airway smooth muscle cells were seeded into each of several wells on a microplate comprising 384 wells each with at least 60 MCS-supporting micropatterns deposed on their surface, in Ham's F12 medium supplemented with 10% serum and incubated for 5 days. The MCS-supporting micropatterns comprised a fluorophore-conjugated material comprising human fibrinogen conjugated to Alexa Fluor® 546 dye.
On day 5, MCS comprising the primary airway smooth muscle cells were observed within the wells. At this point, the serum-supplemented medium was replaced with serum-free medium to induce the contractile phenotype in the MCS. […] This step was taken to maximize contractile responsiveness to agonist in the next step.
After 24 hours of serum starvation, the microplate containing the MCS was imaged using a fluorescent microscope prior to any chemical addition in the fluorescent channel that corresponds to the fluorophore used in the MCS-supporting micropattern.

For `NCCc1c[nH]cn1` [histamine], the “contraction of the MCS (size of MCS-supporting micropatterns relative to baseline contracted state) after addition of agonist” value was “contraction”.
